Patent US7951359B2, “Compositions and methods for therapy or prevention of chemotherapy-induced neuropathy” (Merck Serono SA, priority 2004, dated 2011)
Blank lines part the entries; values can stand above or below the compound they belong to.

Columns and labels:
[1] = system: vincristine induced neuropathy; experiment: Morphometric analysis of sciatic nerve in vincristine-treated rats; format: in vivo, rat
Procedure: Histomorphometric analyses were carried out as described in Example 18 at the completion of the experiments, to explore morphologic changes occurring in fiber and axon diameter and myelin thickness in rats treated with vincristine and in rats co-administrated with IL-6.
With vincristine, morphometric analysis was performed 2 week after the end of vincristine administration on 3 animals per group. The animals were anesthetized by IP injection of 100 mg/kg Imalgène 500®. A 5 mm segment of sciatic nerve was excised, fixed overnight with 4% glutaraldehyde (Sigma, L'Isle d'Abeau-Chesnes, France) in phosphate buffered saline (PBS) (pH=7.4) and maintained in 30% sucrose and stored at 4° C. until further processing. At the time of use, the nerve sample was post-fixed in 1% osmium tetroxide (Sigma, L'Isle d'Abeau-Chesnes, France) in PBS for 2 h, dehydrated in serial alcohol solution, and embedded in Epon. Embedded tissues were then placed at 70° C. during 3 days to allow polymerization of the tissue wax. Cross sections of 1.5 μm thick were performed and they were stained with a 1% toluidine blue solution (Sigma, L'Isle d'Abeau-Chesnes, France) for 2 min, dehydrated and mounted on Eukitt. Twelve sections per sample were examined using an optical microscope (Nikon, Tokyo, Japan) and analyzed using, a semi-automated digital image analysis software (Biocom, France). The fiber diameter (a), axon diameter (b), and myelin thickness (c) were measured as illustrated below.

taxol induced neuropathy = experiment: Electrophysiological monitoring in taxol induced neuropathy, co-administration; format: in vivo, rat
Procedure: The aim of the following experiment was to investigate the potential neuroprotective effect of IL6 in an additional model of chemotherapeutic induced neuropathy mediated by taxol. The potential preventive effect of IL-6 co-administration was tested. Administration of IL-6 was initiated together with taxol administration. The doses of IL-6 of 3 and 10 μg/kg were administered daily or in the case 10 μg/kg also only 3 times per week.
Females 10 weeks old aged Dark Agouti rats were used, 12 animals per group were included as following
The taxol was diluted in a solution of cremophor/ethanol/dextrose 5% and administered twice a week during 4 weeks.
4-MC and test compounds treatment was initiated the first day of intoxication and was stopped at the end of the study.
The study was performed on 8 weeks (1 week for the baseline, 4 weeks for the taxol intoxication and 3 weeks of recovery).
Control, taxol, and taxol-IL-6 co-administered group of rats at the indicated doses were subjected to electrophysiological monitoring to assess the effect of IL-6 in taxol-induced loss of fiber/nerve function.
(§1) Sensitive nerve conduction velocity (SNCV) was also recorded. The tail skin electrodes were placed as follows: a reference needle inserted at the base of the tail and an anode needle placed 30 mm away from the reference needle toward the extremity of the tail. A ground needle electrode was inserted between the anode and reference needles. The caudal nerve was stimulated with a series of 20 pulses (for 0.2 ms) at an intensity of 12.8 mA. The velocity was expressed in m/s.
H-wave reflex was recorded in the hind footpad muscle after stimulation of the sciatic nerve. […] The sciatic nerve was stimulated with a single 0.2 ms pulse at supramaximal intensity. The amplitude (mV) of H wave and the proportion of animal lacking H wave response were the parameters studied.

[2] = system: cisplatin induced neuropathy; format: in vivo, rat; conditions: 4-MC 10 μg/kg IP daily
Procedure: Electrophysiological monitoring in cisplatin-induced neuropathy model was carried out as described in Example 17. The objective was to assess the effect of co-administration with IL-6 in cisplatin-induced loss of fiber/nerve function.
(§2) Electrophysiological recordings were performed using a Neuromatic 2000M electromyograph (EMG) (Dantec, Les Ulis, France). Rats were anaesthetized by IP injection of 60 mg/kg ketamine chlorhydrate (Imalgene 500®, Rhône Merieux, Lyon, France). The normal body temperature was maintained around […] with a heating lamp and verified using a contact thermometer (Quick, Bioblock Scientific, Illkirch, France) placed on the tail surface.
(§3) Compound muscle action potential (CMAP) of M wave signal (or electrically evoked muscle potential) was recorded in the gastrocnemius muscle after stimulation of the sciatic nerve. M wave reflects the current developed during the action potential of muscle fibers. A reference electrode and an active needle were placed in the hind paw. A ground needle was inserted on the lower back of the rat. Sciatic nerve was stimulated with a single 0.2 ms pulse at supramaximal intensity. The […] of the motor wave was recorded and expressed in ms.
as §1
(§4) H-wave reflex was recorded in the hind footpad muscle after stimulation of the sciatic nerve. A reference electrode and a ground needle were placed on the lower back of the rat. The sciatic nerve was stimulated with a single 0.2 ms pulse at supramaximal intensity. The amplitude (mV) of H wave and the proportion of animal lacking H wave response were the parameters studied.

[3] = system: cisplatin induced neuropathy; experiment: Morphometric analysis, therapeutic treatment of established cisplatin neuropathy; format: in vivo, rat; conditions: 4-MC 10 μg/kg IP
Text: The number of degenerated and non-degenerated fibers on the entire surface of each nerve section was counted by an operator in a blinded fashion. All the results (except the data expressed as ratio value) were reported as percentage of changes in reference to the control value.

[4] = system: vincristine induced neuropathy; experiment: Electromyography (EMG) in vincristine-treated rats; format: in vivo, rat
Procedure: In parallel to behavioral tests, electrophysiological test as described in Example 17, were carried out to evaluate fiber/nerve function in vincristine-administered rats vis-à-vis rats co-administrated with IL-6.
as §2, §3, §1, §4

[5] = system: vincristine induced neuropathy; experiment: Hot plate test in vincristine-treated rats; format: in vivo, rat
Procedure: (§5) The rat was placed inside a glass cylinder of 17 cm height and 21 cm diameter on a heating-plate maintained at 52° C. (Medite OTS 40, Microm, Francheville, Rhône, France). The animal behavior was observed, particularly the licking of a foot and the adjusted leap. The latency before licking a foot or before jumping to escape the heat (adjusted leap) was recorded. The time needed to feel the thermal pain is related to the thermal sensitivity and tends to increase when thermal sensitivity is altered.

[6] = system: cisplatin induced neuropathy; experiment: Morphometric analysis of sciatic nerve in cisplatin-treated rats, co-administration; format: in vivo, rat; conditions: 4-MC 10 μg/kg IP daily
Procedure: The total number of fibers per nerve section was obtained from 3 randomized slices of each sample. The counting was performed on 2 selected fields per slice.

[7] = system: cisplatin induced neuropathy; format: in vivo, rat
Procedure: The drug was diluted in 0.9% sterile aqueous solution of sodium chloride.
4-MC was diluted in 0.9% sterile aqueous solution of sodium chloride and injected daily via IP route from day 23 to the end of the experiment.
Electrophysiological tests described in Example 17, were carried out in parallel to the behavioral tests (described in the preceding example) in cisplatin-established neuropathy model. The objective was to assess the therapeutic effect of IL-6 in cisplatin-induced loss of fiber/nerve function.
as §2, §1, §4

[8] = system: cisplatin induced neuropathy; experiment: Hot plate test in cisplatin-treated rats, co-administration; format: in vivo, rat; conditions: 4-MC 10 μg/kg IP daily; 3 weeks
Procedure: as §5

[9] = system: cisplatin induced neuropathy; experiment: Hot plate test, therapeutic treatment of established cisplatin neuropathy; format: in vivo, rat; conditions: 4-MC 10 μg/kg IP daily from day 23; after 2 weeks; p≦0.05
[10] = system: lung (SK-MES1) tumor cell line; experiment: Cell survival by acid phosphatase activity assay, SK-MES1; format: cell-based, human; conditions: 4 days; for decrease in cell survival versus control: cisplatin (2.5 μM), carboplatin (25 μM)
Procedure: (§6) The human lung (SK-MES1) and breast (MCF7) tumor cell lines were obtained from ATCC. The cell lines were maintained in Dulbecco's MEM medium (Gibco; Invitrogen, Cergy-Pontoise, France, ref. 41965039) supplemented with 1% antibiotic/antimicotic mixture solution (Gibco, ref. 15240062), and 10% heat-inactivated foetal bovine serum (Gibco, ref. F7524, batch 92K3387). The cells were amplified in Nunc tissue culture flasks (80 cm2) in a humidified incubator at 37° C. with 5% CO2 in 95% air. Cultures were sub-cultured twice a week.
(§7) The enzymatic activity has been proven to be proportional to the number of living cells (Ueda et al.; 1994).
(§8) Three days after the last replication, tumor cells were seeded in 96 well-plates (TPP, VWR International, Fontenay-sous-bois, France) at a density of 1,500 cells (MCF7 line) or 3,000 cells (SK-MES1 line) per well, in a total volume of 100 μl/well and incubated overnight in a humidified incubator at 37° C. with 5% CO2 in 95% air. […] IL-6 (in buffer solution at 1.8 mg/ml, PH: 7) was immediately added at concentrations of 0, 3, 12, 50 or 200 ng/ml.
(§9) Four days after the initiation of the intoxication, acid phosphatase activity (Example 21) in each cell culture was assessed.
(§10) After removal of the culture medium, cells were rinsed with phosphate-buffered saline (PBS, Gibco, ref. 14190-094) and further incubated for 90 min at 37° C. in 100 μl of buffer containing 0.1 mol/l sodium acetate (pH 5.5), 0.1% Triton X100 (Sigma, ref. T9284) and 10 mmol/l p-nitrophenyl phosphate (Sigma, ref. N9389). Reaction was stopped by addition of 10 μl of 1 mol/l sodium hydroxide aqueous solution (Laboratoire de Produit Chimiques de la Robertsau, Strasbourg, France; ref. 28.252.293). Absorbance of the colored solution was measured at 405 nm in a microplate reader (Labsystems Multiskan Bichromatic, EST-LAB, Strasbourg, France).
(§11) The results were expressed as percentage of optical density of the control cell cultures. The heights of the columns represent mean±SEM of percentages of 5-6 wells from two independent cultures.

[11] = system: breast (MCF7) tumor cell line; experiment: Cell survival by acid phosphatase activity assay, MCF7; format: cell-based, human; conditions: 4 days; for decrease in cell survival versus control: cisplatin (2.5 μM), carboplatin (25 μM)
Procedure: as §6, §7, §8, §9, §10, §11

[12] = Body weight in vincristine induced neuropathy rat model; conditions: vincristine 0.15 mg/kg, vehicle-treated
Procedure: The experiments were carried out employing 10 weeks-old female Dark Agouti rats (Janvier, Le Genest-St-Isle, France). […] 4-MC is a standard compound with an established neuroprotective action, used at the dose of 10 μg/kg (n=10).
Vincristine (Tocris, Illkirch, France) was administered by an injection of a vincristine solution from day 0 to 5, from day 8 to 12 and from day 15 to 16 at a dose of 0.15 mg/kg. A vincristine solution (0.03 mg/ml) was prepared in saline.
IL-6 was diluted in saline containing 0.02% BSA and was administered via subcutanuous route every day from the first day of vincristine administration until the end of the experiment.

[13] = system: vincristine induced neuropathy; experiment: Hindpaw skin biopsy, density of dermal nerve fibers in vincristine-treated rats; format: in vivo, rat; conditions: vincristine intoxication
Procedure: A 5-10 mm diameter area of skin was punch-biopsied from the hindpaw. Skin samples were immediately fixed overnight in paraformaldehyde at 4° C., incubated (overnight) in 30% sucrose in 0.1 M PBS for cryoprotection, embedded in OCT and frozen at −80° C. until cryocut. 50 μm-thick cryosections were then cut vertical to the skin surface with a cryostat. Free-floating sections were incubated for 7 days in a bath of rabbit anti-protein gene product 9.5 (1:10000; Ultraclone, Isle of Man, UK) at 4° C. The sections were then processed to reveal immunoreactivity according to the ABC peroxidase method. Briefly, they were incubated in for 1 hr with biotinylated anti-goat antibody (1:200), then 30 min in the avidin biotinylated complex at room temperature. Peroxidase activity was visualized using DAB system. Sections were then counterstained with eosin or hematoxylin. Sections were dehydrated, cleared with bioclear and mounted on eukitt. The number of dermal nerves of 3 microscope fields was counted manually under 40 magnification view.

[14] = system: vincristine induced neuropathy; experiment: Walking test (motor coordination) in vincristine-treated rats; format: in vivo, rat; conditions: vincristine alone; after 2 and 3 weeks
Procedure: The motor coordination was assessed using walking test, which consists at measuring the time taken by a rat placed at one extremity of a 100 cm-long horizontal wooden rod of 5.5 cm diameter, 40 cm above the table, to cover a distance of 1 m on this rod. Three tests (maximum duration: 60 s each) were performed, and the mean value was calculated and retained as characteristic value. If the animal fell down, it was scored with a maximum of 60 s.

SMILES: Cc1ccc(O)c(O)c1 [4-MC, 4-methylcatechol]
decrease in axon diameter by vincristine ([1]; 4-MC 10 μg/kg IP daily): significantly reduced/prevented the decrease in axon diameter | percentage of degenerated fibers in vincristine treated rats ([1]; 4-MC 10 μg/kg IP daily): decreased the percentage of degenerated fibers | vincristine-induced fiber shrinkage ([1]; 4-MC 10 μg/kg IP daily): protected | prevention of H-wave amplitude reduction by taxol (taxol induced neuropathy; 4-MC 10 μg/kg daily i.p.): not significant | H wave latency under taxol (taxol induced neuropathy; 4-MC 10 μg/kg daily i.p., weeks 3, 5, 6 and 7): improvement in H wave latency | loss of H wave induced by cisplatin [2]: only a delayed and transient effect | decrease in SNCV by cisplatin ([2]; only after 5 weeks): transiently prevented the decrease in SNCV | cisplatin-induced myelin sheath thinning [3]: did not interfere with cisplatin-induced myelin sheath thinning | proportion of degenerated fibers ([3]; p>0.05): slight but not significant reduction | protection against loss of M wave amplitude ([4]; 4-MC 10 μg/kg IP daily with vincristine): protect the loss of M wave amplitude only transiently | prevention of vincristine-induced nociception loss (hot plate) ([5]; 4-MC 10 μg/kg IP daily): did not appear to have any major preventive effect | cisplatin-induced decrease in fiber or axon diameter [6]: protected against the decrease in cisplatin-induced fiber diameter or axon | loss of myelin wall by cisplatin [6]: significant protection against loss of myelin wall | cisplatin-induced H wave loss in amplitude ([7]; 4-MC 10 μg/kg IP daily from day 23): reversed the cisplatin-induced H wave loss in amplitude | SNCV in cisplatin-treated animals ([7]; 4-MC 10 μg/kg IP, significant only 2 weeks after treatment initiation): appeared to improve SNCV | first reaction time versus cisplatin alone [8]: slight but not significant decrease | time of the first reaction to heat [9]: Reduction of the time of the first reaction to heat

SNCV versus non-treated control (taxol induced neuropathy; taxol alone, 3 weeks): significantly slower | H wave latency (taxol induced neuropathy; taxol alone, 3 weeks after taxol treatment): significant increase | H wave latency (taxol induced neuropathy; taxol alone, 6 weeks after taxol treatment): dramatically increased
SMILES: CC(=O)O[C@H]1C(=O)[C@@]2(C)[C@H]([C@H](OC(=O)c3ccccc3)[C@]3(O)C[C@H](OC(=O)[C@H](O)[C@@H](NC(=O)c4ccccc4)c4ccccc4)C(C)=C1C3(C)C)[C@]1(OC(C)=O)CO[C@@H]1C[C@@H]2O [taxol]
decrease of cell survival ([10]; taxol, 'this concentration' (30 nM)): about 70% | decrease in cell survival ([11]; taxol 30 nM): about 55%

axon diameter ([1]; vincristine alone): significantly decreases | myelin thickness versus control ([1]; vincristine alone): significantly reduced | percentage of degenerated fibers versus control ([1]; vincristine alone): two times higher | sciatic nerve fiber diameter versus control ([1]; vincristine alone): significant decrease in fiber diameter | loss of M wave amplitude versus control ([4]; vincristine alone, 2 weeks): about 20% | loss of SNCV ([4]; vincristine alone, 5 weeks after treatment initiation): about 10 m/s | hot plate first reaction to heat versus control ([5]; vincristine alone, significant at 3 and 5 weeks): delayed first reaction to heat | walking test performance versus non-treated controls [14]: significantly reduced
SMILES: CC[C@]1(O)C[C@H]2CN(CCc3c([nH]c4ccccc34)[C@@](C(=O)OC)(c3cc4c(cc3OC)N(C=O)[C@H]3[C@@](O)(C(=O)OC)[C@H](OC(C)=O)[C@]5(CC)C=CCN6CC[C@]43[C@@H]65)C2)C1 [vincristine]
percentage of myelinated fibers versus control ([1]; vincristine alone): less than that in the control non-treated group | body weight lost at completion of vincristine administration [12]: about 10% | decrease in the density of epidermal nerve fibers [13]: more than 50% | decrease in cell survival versus control [10]: about 50% | decrease in cell survival versus control [11]: about 50%

SMILES: N.N.O=C([O-])C1(C(=O)[O-])CCC1.[Pt+2] [carboplatin]
decrease in cell survival versus control [10]: about 50% | decrease in cell survival versus control [11]: about 50%
